Converted amounts (≈) assume the structure as drawn.
How the values were obtained:
DPPH radical scavenging = conditions: 0 to 100 µg/mL series
Description: (§1) The concentration of essential oil used was a different series from 0 to 100 μg/mL for each radical quenching assay. The quenching of DPPH radicals was analyzed using the methods of [70]. The ABTS radicals scavenging activity was analyzed according to the methods of Li et al.. The hydrogen peroxide quenching potential of the essential oil was following the methods of Munteanu and […] [72]. The ferric-reducing abilities of the essential oil were estimated according to the methods described by He et al.. The methods described by Okoh et al.

ABTS radical scavenging = conditions: 0 to 100 µg/mL series
Description: as §1

[1] = H2O2 radical scavenging (hydrogen peroxide quenching); conditions: 0 to 100 µg/mL series
Description: as §1

[2] = Lipid peroxidation inhibition (ex vivo); conditions: 0 to 100 µg/mL series
Description: as §1

α-amylase = experiment: α-Amylase inhibition; format: biochemical; conditions: 0–100 μg/mL
aldose reductase = aldose reductase (Homo sapiens, UniProt P15121); experiment: Aldose reductase inhibition; format: biochemical; conditions: 0–100 μg/mL
sorbitol dehydrogenase = target: T1, sorbitol dehydrogenase (Homo sapiens, UniProt Q00796); experiment: Sorbitol dehydrogenase inhibition; format: biochemical; conditions: 0–100 μg/mL
T1 sequence (Q00796 1-357): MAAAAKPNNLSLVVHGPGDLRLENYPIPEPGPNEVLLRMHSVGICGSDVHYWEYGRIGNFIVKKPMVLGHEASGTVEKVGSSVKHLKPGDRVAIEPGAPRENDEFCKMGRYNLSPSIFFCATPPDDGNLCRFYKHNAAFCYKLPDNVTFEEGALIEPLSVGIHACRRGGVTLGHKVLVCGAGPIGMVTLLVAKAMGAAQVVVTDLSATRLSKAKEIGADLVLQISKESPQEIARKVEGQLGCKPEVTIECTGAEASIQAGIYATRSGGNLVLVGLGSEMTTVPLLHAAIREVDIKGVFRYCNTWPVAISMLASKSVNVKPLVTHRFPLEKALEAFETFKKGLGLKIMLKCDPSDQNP

α-glucosidase = experiment: α-Glucosidase inhibition; conditions: 0–100 μg/mL
Description: The enzyme-inhibitory potential of the essential oil was evaluated by mixing different concentrations (0–100 μg/mL) against the respective enzymes and their substrates. The enzyme activities will be estimated in terms of the substrate utilized after incubation. The inhibition of α-amylase [75], α-glucosidase [76], aldose reductase [77] and sorbitol dehydrogenase [78] was carried out according to the methods previously described.

Staphylococcus aureus [3] = experiment: Disc diffusion method; format: cell-based; conditions: 8 mm disc, 10 μL oil, 24 h
Bacillus cereus [4] = experiment: Disc diffusion method; format: cell-based; conditions: 8 mm disc, 10 μL oil, 24 h
Streptococcus pyogenes [5] = experiment: Disc diffusion method; format: cell-based; conditions: 8 mm disc, 10 μL oil, 24 h
Escherichia coli [6] = experiment: Disc diffusion method; format: cell-based; conditions: 8 mm disc, 10 μL oil, 24 h
Salmonella enterica [7] = experiment: Disc diffusion method; format: cell-based; conditions: 8 mm disc, 10 μL oil, 24 h
Source text: (§2) The bacteria were procured from Microbial Type Culture Collection and Gene Bank (MTCC), Chandigarh and maintained under standard conditions as prescribed by Bonnet, et al.. The bacterial strains used include Escherichia coli, Pseudomonas aeruginosa, Staphylococcus aureus, Bacillus cereus, Streptococcus pyogenes and Salmonella enterica.
Initially, the bacteria cultured were completed in Luria-Bertani broth; for the antibacterial study, the inoculum of the bacteria was made on a Mueller Hinton Agar (MHA) agar plate (Himedia, Mumbai, Maharashtra, India) at a thickness of 5 mm. Later, a filter paper disc (8 mm in diameter) containing the leaf essential oil of C. malabatrum (10 μL) was placed in the agar plate at a distance of 50 mm. At the end of 24 h, the formation of the growth inhibition zone was estimated.

Staphylococcus aureus [8] = experiment: Minimum inhibitory concentration (96-well, TTC); format: cell-based
Bacillus cereus [9] = experiment: Minimum inhibitory concentration (96-well, TTC); format: cell-based
Streptococcus pyogenes [10] = experiment: Minimum inhibitory concentration (96-well, TTC); format: cell-based
Escherichia coli [11] = experiment: Minimum inhibitory concentration (96-well, TTC); format: cell-based
Pseudomonas aeruginosa [12] = experiment: Minimum inhibitory concentration (96-well, TTC); format: cell-based
Salmonella enterica [13] = experiment: Minimum inhibitory concentration (96-well, TTC); format: cell-based
Source text: as §2
The determination of the MIC value was made according to the methods described by Campana, et al.. Before beginning, the density of the inoculum was spectrophotometrically set to 5 × 10^5 CFU/mL. From this, about 50 µL was transferred to individual wells of a 96-well plate containing different concentrations of C. malabatrum essential oil. Later, 2,3,5-triphenyltetrazolium chloride (10 µL) was added to each well; the pink color of the 2,3,5-triphenyltetrazolium chloride was lost in the absence of bacterial growth. The MIC value was considered as the lowest concentration without a detectable pink color.

[14] = Ferric-reducing potential (FRAP); conditions: 0 to 100 µg/mL series
Description: as §1

Pseudomonas aeruginosa [15] = experiment: Disc diffusion method; format: cell-based; conditions: 8 mm disc, 10 μL oil, 24 h

| SMILES | DPPH radical scavenging IC50 (DPPH radical scavenging) [µg/mL] | ABTS radical scavenging IC50 (ABTS radical scavenging) [µg/mL] | H2O2 radical scavenging IC50 [1] [µg/mL] | Lipid peroxidation inhibition IC50 [2] [µg/mL] | α-Amylase inhibition IC50 (α-amylase) [µg/mL] | IC50 (aldose reductase) [µM] | IC50 (sorbitol dehydrogenase) [µM] | α-Glucosidase inhibition IC50 (α-glucosidase) [µg/mL] | Zone of Inhibition (Staphylococcus aureus [3]) [mm] | Zone of Inhibition (Bacillus cereus [4]) [mm] | Zone of Inhibition (Streptococcus pyogenes [5]) [mm] | Zone of Inhibition (Escherichia coli [6]) [mm] | Zone of Inhibition (Salmonella enterica [7]) [mm] | MIC (Staphylococcus aureus [8]) [µg/mL] | MIC (Bacillus cereus [9]) [µg/mL] | MIC (Streptococcus pyogenes [10]) [µg/mL] | MIC (Escherichia coli [11]) [µg/mL] | MIC (Pseudomonas aeruginosa [12]) [µg/mL] | MIC (Salmonella enterica [13]) [µg/mL] | other results |
| --- | --- | --- | --- | --- | --- | --- | --- | --- | --- | --- | --- | --- | --- | --- | --- | --- | --- | --- | --- | --- |
| O=C1O[C@H]([C@@H](O)CO)C(O)=C1O [Ascorbic Acid] | 8.13 ± 0.09 | 12.82 ± 0.40 | 19.11 ± 0.26 | 63.02 ± 0.33 | 45.17 ± 2.36 | 163 | 341 | 36.03 ± 1.98 |  |  |  |  |  |  |  |  |  |  |  |  |
| CNC(C)C1CCC(N)C(OC2C(N)CC(N)C(OC3OCC(C)(O)C(NC)C3O)C2O)O1 (stereo not shown) [GM, gentamicin] |  |  |  |  |  |  |  |  | 18.5 ± 0.5 | 21.3 ± 0.5 | 19.2 ± 0.7 | 21.3 ± 0.3 | 19.9 ± 0.3 | 325 (≈ 680 µM) | 325 (≈ 680 µM) | 167 (≈ 350 µM) | 325 (≈ 680 µM) | 167 (≈ 350 µM) | 167 (≈ 350 µM) |  |
| C=CC(C)(O)CCC=C(C)C (stereo not shown) [Linalool] | 35.22 ± 0.11 | 40.01 ± 1.33 | 38.09 ± 2.45 | 78.49 ± 3.07 | 62.34 ± 2.91 | 383 | 573 | 30.93 ± 3.41 | 18.1 ± 0.2 | 17.6 ± 0.3 | 17.9 ± 0.1 | 17.8 ± 0.1 | 16.8 ± 0.3 | 325 (≈ 2110 µM) | 625 ± 100 (≈ 4050 µM) | 325 (≈ 2110 µM) | 625 ± 50 (≈ 4050 µM) | 325 ± 100 (≈ 2110 µM) | 325 (≈ 2110 µM) | Ferric-reducing potential IC50 [14]: 35.93 ± 0.24 µg/mL; Zone of Inhibition (Pseudomonas aeruginosa [15]): 19.3 ± 0.2 mm |

Reference: publication PMC10215355, “Chemical Composition of the Cinnamomum malabatrum Leaf Essential Oil and Analysis of Its Antioxidant, Enzyme Inhibitory and Antibacterial Activities” (Antibiotics, 2023)
